In patent publication US11293927B2, “Screening methods for PARP modulators” (Ribon Therapeutics, Inc., priority 2018, dated 2022):

Experiments:
[1] = molecular target: T1, PARP14 (Homo sapiens, UniProt Q460N5); experiment: NanoBRET probe displacement assay (Probe A) in live 293T cells, PARP14; format: cell-based; settings: NanoBRET displacement of Probe A, NanoLuc-tagged PARP14 in live 293T cells
T1 sequence (Q460N5 1611-1801): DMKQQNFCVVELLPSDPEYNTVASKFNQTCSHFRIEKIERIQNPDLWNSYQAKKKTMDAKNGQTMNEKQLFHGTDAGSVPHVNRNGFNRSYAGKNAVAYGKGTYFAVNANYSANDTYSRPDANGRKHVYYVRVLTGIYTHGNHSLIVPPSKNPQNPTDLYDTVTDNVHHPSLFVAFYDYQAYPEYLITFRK
Procedure: MonoPARP genes from Table 5 were cloned into the pcDNA3.1-mammalian expression vector as a NanoLuc fusion with NanoLuc on the N- or C-terminus as indicated. The sequence of the NanoLuc tag is as follows: [table] Displacement of a fluorescently-labeled compound Probe A binding to NanoLuc-tagged monoPARP enzymes was measured in live cells using a bioluminescence resonance energy transfer (NanoBRET) assay. TIPARP, PARP10, PARP12 or PARP14 fused to a NanoLuc tag were overexpressed in 293T cells (ATCC) using the plasmids described herein. Plasmid DNA and empty vector DNA were added to phenol red free OptiMEM (Thermo Fisher) as shown in Table 6 in a total volume of 2.456 mL. 157 μL of Fugene HD (Promega) was added to the DNA mixture and allowed to incubate 5 min at 25° C. [table] Next, 2.375 mL of the plasmid-Fugene mixture were added to 20 million 293T cells in DMEM (Thermo Fisher) supplemented with 10% FBS (VWR). The transfection was incubated for 24 h at 37° C. in an incubator containing air supplemented with 5% CO2. The cells were resuspended in phenol red free OptiMEM media. 40 μL of cells were then added to white polystyrene 384-well non-binding surface microplate (Corning). […] Filtered luminescence was measured on an Envision (Perkin Elmer) equipped with a dual 585 nm mirror, 460±40 nm bandpass filter (donor) and 610±50 nm longpass filter (acceptor). […]

[2] = molecular target: T2, PARP10 (Homo sapiens, UniProt Q53GL7); experiment: In vitro TR-FRET probe displacement assay (Probe C), PARP10; format: binding; design: made in house; host or cells: E. coli; settings: TR-FRET displacement of Probe C, PARP10 residues 808-1025
T2 sequence (Q53GL7 808-1025): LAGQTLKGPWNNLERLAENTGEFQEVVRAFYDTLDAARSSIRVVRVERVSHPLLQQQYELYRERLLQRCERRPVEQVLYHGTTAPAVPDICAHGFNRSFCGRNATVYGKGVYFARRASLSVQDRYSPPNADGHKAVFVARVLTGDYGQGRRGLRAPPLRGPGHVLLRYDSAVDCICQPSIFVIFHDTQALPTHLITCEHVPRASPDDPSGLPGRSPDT
Procedure: A portion of PARP10 (residues 808 to 1025 of NP_116178.2 (SEQ ID NO: 2), GenBank Accession No. NM_032789.4) was overexpressed in E. coli cells. An N-terminal fusion tag, MAHHHHHHENLYFQSM (SEQ ID NO: 8), was used to purify the protein from cell lysates. The fusion tag was left on the protein for use in the probe displacement assay.
Displacement of a Probe C binding to monoPARP active sites was measured using a time-resolved fluorescence resonance energy transfer (TR-FRET) assay. 20 nL of a dose response curve of each test compound was spotted in black 384-well polystyrene proxiplates (Perkin Elmer) using a Mosquito (TTP Labtech). Reactions were performed in an 8 μL volume by adding 6 μL of the monoPARP and Probe C in assay buffer (20 mM HEPES pH=8, 100 mM NaCl, 0.1% bovine serum albumin, 2 mM DTT and 0.002% Tween20), incubating with test compound at 25° C. for 30 min, then adding 2 μL of ULight-anti 6×His and LANCE Eu-W 1024 labeled streptavidin (Perkin Elmer). Binding reactions were equilibrated at 25° C. for an additional 30 min, then read on an Envision platereader equipped with a LANCE/DELFIA top mirror (Perkin Elmer) using excitation of 320 nm and emission of 615 nm and […] with a 90 μs delay. The ratio of the 665/615 nm emission were calculated for each well to determine the amount of complex of monoPARP and Probe C in each well. […]

IC50 [1]: 30 nM
IC50 [2]: 80 nM
Compound: O=c1[nH]ncc(N2Cc3ccc(OC4CCNCC4)cc3C2)c1C(F)(F)F [Compound A, 5-[5-(Piperidin-4-yloxy)-2,3-dihydro-1H-isoindol-2-yl]-4-(trifluoromethyl)-2,3-dihydropyridazin-3-one]
